This note sets out measurements from US20250304644A1, “PEPTIDES TRIPLE AGONISTS OF GIP, GLP-1 AND GLP-2” (BAINAN BIOTECH APS, priority 2021, published 2025).

Like-named read-outs stand apart in the source and are kept apart here. *1 amine or outer side, *2 acyl side, *3 side chain or, on linkers, in order; H or OH if unused. Where no end group is shown, it is not given here. Side-chain parts run from the residue outwards. [ ]: non-standard residue; d: D form. The star is where a group is joined. C18 diacid = O=C(O)CCCCCCCCCCCCCCCCC(=O)*; γGlu = O=C(O)[C@H](CCC(=O)[*:2])N[*:1]; AEEA = NCCOCCOCC(=O)O; Aib = CC(C)(N)C(=O)O

What all share (assay type): cell-based
The target of one assay is T1, human GIPR (Homo sapiens, UniProt P48546).
T1 construct: host or cells: COS-7
T1 sequence (P48546 22-466): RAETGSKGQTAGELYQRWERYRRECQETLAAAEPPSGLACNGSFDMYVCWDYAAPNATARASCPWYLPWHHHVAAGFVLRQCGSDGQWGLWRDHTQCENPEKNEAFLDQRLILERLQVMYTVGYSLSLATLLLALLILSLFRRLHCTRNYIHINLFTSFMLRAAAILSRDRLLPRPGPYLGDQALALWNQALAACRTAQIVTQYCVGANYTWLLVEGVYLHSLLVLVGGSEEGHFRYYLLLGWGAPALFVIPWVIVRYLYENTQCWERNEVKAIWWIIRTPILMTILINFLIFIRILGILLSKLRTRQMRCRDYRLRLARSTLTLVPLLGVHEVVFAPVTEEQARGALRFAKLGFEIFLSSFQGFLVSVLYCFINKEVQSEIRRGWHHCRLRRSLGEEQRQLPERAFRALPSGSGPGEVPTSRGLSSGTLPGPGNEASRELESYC
Description: cAMP assay (HitHunter) in transiently transfected COS-7 cells expressing human GIPR. Conditions: for Emax: COS-7, normalized to highest concentration of the endogenous ligand, read-out: Efficacy GIPR (Emax); for EC50: cAMP, COS-7 cells, human GIPR. (In general: Cyclic AMP is a second messenger, typically raised through Gs and lowered through Gi signalling.)

For a further assay, the target named is T2, human SNAP-tagged GLP-1R (Homo sapiens, UniProt P43220).
T2 construct: expressed in transfected cells; host or cells: HEK293A
Description: Receptor internalization assay, HEK293A cells expressing human SNAP-tagged GLP-1R. Conditions: for Absolute hGLP-1R internalization (AUC): AUC of sigmoid curves up to 1 μM, 60 minutes at 37° C.; for GLP-1R internalization (in words): compared to native GLP-1; for Relative hGLP-1R internalization (%): relative to hGLP-1 = 100.

The next assay deals with T3, human GLP-1R (Homo sapiens, UniProt P43220).
T3 construct: host or cells: COS-7
Description: cAMP assay (HitHunter) in transiently transfected COS-7 cells expressing human GLP-1R. The following applies: for Emax: COS-7, normalized to highest concentration of the endogenous ligand, read-out: Efficacy GLP-1R (Emax); for EC50: cAMP, COS-7 cells, human GLP-1R.

In a further assay the target is T4, human GLP-2R (Homo sapiens, UniProt O95838).
T4 construct: host or cells: COS-7
T4 sequence (O95838 1-553): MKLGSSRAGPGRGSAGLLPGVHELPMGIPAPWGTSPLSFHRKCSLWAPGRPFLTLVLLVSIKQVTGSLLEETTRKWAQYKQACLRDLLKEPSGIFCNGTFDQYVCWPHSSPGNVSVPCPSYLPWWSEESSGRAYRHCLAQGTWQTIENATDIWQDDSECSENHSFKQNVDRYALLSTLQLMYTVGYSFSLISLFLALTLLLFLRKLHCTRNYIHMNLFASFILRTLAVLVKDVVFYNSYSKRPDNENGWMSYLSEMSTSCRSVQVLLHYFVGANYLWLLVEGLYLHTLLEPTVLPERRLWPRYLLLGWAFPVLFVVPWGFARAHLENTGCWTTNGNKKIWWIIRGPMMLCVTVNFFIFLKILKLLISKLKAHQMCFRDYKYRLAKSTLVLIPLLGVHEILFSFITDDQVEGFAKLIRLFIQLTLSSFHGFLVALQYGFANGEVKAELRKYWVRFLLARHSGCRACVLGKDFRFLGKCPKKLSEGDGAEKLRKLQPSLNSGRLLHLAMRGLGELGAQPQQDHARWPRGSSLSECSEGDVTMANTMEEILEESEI
The assay can be described thus: cAMP assay (HitHunter) in transiently transfected COS-7 cells expressing human GLP-2R. Conditions: for Emax: COS-7, normalized to highest concentration of the endogenous ligand, read-out: Efficacy GLP-2R (Emax); for EC50: cAMP, COS-7 cells, human GLP-2R.

A further assay addresses T5, human SNP-tagged GLP-2R (Homo sapiens, UniProt O95838).
T5 construct: expressed in transfected cells; host or cells: HEK293A
T5 sequence (O95838 1-553): T4 sequence (O95838 1-553)
Description: Receptor internalization assay, HEK293A cells expressing human SNAP-tagged GLP-2R. Conditions: for Absolute hGLP-2R internalization (AUC): AUC of sigmoid curves up to 1 μM, 60 minutes at 37° C.; for GLP-2R internalization (in words): compared to native GLP-2; for Relative hGLP-2R internalization (%): relative to native ligand = 100.

For assay [1], the target named is human glucagon receptor (GCGR) (Homo sapiens, UniProt P47871). Description: Gs activation measured as cAMP accumulation on human glucagon receptor (FIG. 1 radar plot). The following applies: read-out: −p Log EC50 on human glucagon receptor (GCGR) (converted). An excerpt: Here, the compounds 20, 21, 22, 28, 30, 31,32, 33, 34, 35 are shown in terms of their potencies in Gs activation, measured as CAMP accumulation, depicted in a radar plot. The numbers refer to −p Log EC50 values. […] The outer rings correspond to higher potencies, the inner rings correspond to lower potencies.

In another assay the target is T6, human SNAP-tagged GIPR (Homo sapiens, UniProt P48546).
T6 construct: host or cells: HEK293A
T6 sequence (P48546 22-466): T1 sequence (P48546 22-466)
Description: Receptor internalization assay, HEK293A cells expressing human SNAP-tagged GIPR. Conditions: for Absolute hGIPR internalization (AUC): AUC of sigmoid curves up to 1 μM, 60 minutes at 37° C.; for GIPR internalization (in words): compared to native GIP; for Relative hGIPR internalization (%): relative to hGIP 1-42 = 100.

[2] abbreviates: read-out: logEC50 GLP-1R (converted).

human glucagon receptor (GCGR), sequence (P47871 26-477): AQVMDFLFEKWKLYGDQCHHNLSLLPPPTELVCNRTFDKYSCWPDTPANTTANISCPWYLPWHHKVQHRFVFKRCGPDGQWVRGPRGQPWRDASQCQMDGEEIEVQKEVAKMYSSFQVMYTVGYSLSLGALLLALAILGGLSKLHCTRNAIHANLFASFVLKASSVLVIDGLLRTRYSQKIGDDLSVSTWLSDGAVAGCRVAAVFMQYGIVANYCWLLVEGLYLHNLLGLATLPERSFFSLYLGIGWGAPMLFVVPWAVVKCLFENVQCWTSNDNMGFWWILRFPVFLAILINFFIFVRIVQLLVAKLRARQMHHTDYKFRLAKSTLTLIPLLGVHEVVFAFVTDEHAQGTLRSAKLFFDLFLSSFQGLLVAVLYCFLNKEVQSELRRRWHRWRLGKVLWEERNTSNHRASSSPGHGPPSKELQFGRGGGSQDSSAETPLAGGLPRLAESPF
T2 sequence (P43220 24-463): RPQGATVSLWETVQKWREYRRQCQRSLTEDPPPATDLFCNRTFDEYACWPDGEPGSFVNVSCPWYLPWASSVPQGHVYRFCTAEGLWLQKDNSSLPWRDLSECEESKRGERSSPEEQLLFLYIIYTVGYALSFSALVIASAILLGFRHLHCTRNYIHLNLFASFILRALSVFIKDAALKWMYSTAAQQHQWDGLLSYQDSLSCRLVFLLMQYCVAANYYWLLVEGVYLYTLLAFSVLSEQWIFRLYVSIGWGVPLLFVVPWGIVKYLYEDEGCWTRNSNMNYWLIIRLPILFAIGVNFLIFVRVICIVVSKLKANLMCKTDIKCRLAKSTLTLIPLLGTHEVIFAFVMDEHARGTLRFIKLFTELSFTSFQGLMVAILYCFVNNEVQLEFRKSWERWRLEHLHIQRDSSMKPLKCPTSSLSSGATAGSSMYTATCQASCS
T3 sequence (P43220 24-463): as above

Take “HADGTFTSDYSIILDK([AEEA-AEEA-γGlu-C18 diacid])LAARDFINWLIQTKGKKNDWKHNITQ-OH [Compound 20]”: on human GIPR, the Emax is 112% and the EC50 was found to be 0.126 nM. On human SNAP-tagged GLP-1R, the “Absolute hGLP-1R internalization (AUC)” value stood at 91.8; the “GLP-1R internalization (in words)” value is “comparable to native GLP-1 and GLP-2”; the “Relative hGLP-1R internalization (%)” value is on record as 109.14%. Further, on human GLP-1R, the Emax came out at 112%. Moreover, the EC50 at human GLP-1R (setting [2]) was 0.0398 nM. For the same substance, the Emax on human GLP-2R came out at 100%. For the same substance, on human GLP-2R (read-out: logEC50 GLP-2R (converted)), the EC50 is 0.316 nM. For the same substance, at human SNP-tagged GLP-2R, the “Absolute hGLP-2R internalization (AUC)” value was determined as 39.4; the “GLP-2R internalization (in words)” value is “comparable to native GLP-1 and GLP-2”; the “Relative hGLP-2R internalization (%)” value is 81.0%. Also, in assay [1], the EC50 was greater than 100 nM. Moreover, at human SNAP-tagged GIPR, the “Absolute hGIPR internalization (AUC)” value was 14.2, the “GIPR internalization (in words)” value is “reduced internalization compared to native GIP” and the “Relative hGIPR internalization (%)” value was found to be 38%.

Turning to “HADGTFTSDYSTILDK([AEEA-AEEA-γGlu-C18 diacid])LAARDFINWLIQTKGKKNDWKHNITQ-OH [Compound 21]”, at human GIPR, the Emax came out at 104% and the EC50 turned out to be 0.398 nM. Moreover, on human SNAP-tagged GLP-1R, the “Absolute hGLP-1R internalization (AUC)” value came to 94.7; the “GLP-1R internalization (in words)” value is “comparable to native GLP-1 and GLP-2”; the “Relative hGLP-1R internalization (%)” value is 112.59%. The Emax at human GLP-1R turned out to be 122%. Moreover, at human GLP-1R (read-out: EC50 (nM) GLP-1R), the EC50 was 0.05 nM. The Emax on human GLP-2R was 104%. The EC50 on human GLP-2R (read-out: EC50 (nM) GLP-2R) turned out to be 0.6 nM. On human SNP-tagged GLP-2R, the “Absolute hGLP-2R internalization (AUC)” value is reported as 36.3; the “GLP-2R internalization (in words)” value is “comparable to native GLP-1 and GLP-2”; the “Relative hGLP-2R internalization (%)” value is 74.6%. In assay [1], the EC50 was greater than 100 nM. Further, at human SNAP-tagged GIPR, the “Absolute hGIPR internalization (AUC)” value turned out to be 10.2, the “GIPR internalization (in words)” value was “reduced internalization compared to native GIP” and the “Relative hGIPR internalization (%)” value came out at 28%.

With “HADGTFTSDYST[Aib]LDK([AEEA-AEEA-γGlu-C18 diacid])LAARDFINWLIQTKGKKNDWKHNITQ-OH [Compound 22]”, on human GIPR, the Emax stood at 93% and the EC50 was 1.12 nM. Besides, on human SNAP-tagged GLP-1R, the “Absolute hGLP-1R internalization (AUC)” value stood at 78.81; the “GLP-1R internalization (in words)” value is “comparable to native GLP-1 and GLP-2”; the “Relative hGLP-1R internalization (%)” value came to 93.70%. Further, the maximal response (Emax) on human GLP-1R turned out to be 116%. Moreover, the EC50 at human GLP-1R (read-out: EC50 (nM) GLP-1R) amounted to 0.04 nM. Also, on human GLP-1R (setting [2]), the EC50 is 0.0316 nM. Further, on human GLP-2R, the Emax was 93%. The EC50 on human GLP-2R (read-out: EC50 (nM) GLP-2R) came to 0.6 nM. For the same substance, at human SNP-tagged GLP-2R, the “Absolute hGLP-2R internalization (AUC)” value turned out to be 38.0; the “GLP-2R internalization (in words)” value was “comparable to native GLP-1 and GLP-2”; the “Relative hGLP-2R internalization (%)” value was found to be 78.2%. Besides, the EC50 in assay [1] is greater than 100 nM. Moreover, at human SNAP-tagged GIPR, the “Absolute hGIPR internalization (AUC)” value stood at 7.0, the “GIPR internalization (in words)” value is given as “reduced internalization compared to native GIP” and the “Relative hGIPR internalization (%)” value stood at 19%.

As usually defined, the Emax is the greatest response seen or fitted, relative to the assay's reference.
